Results reported in patent US20130143929A1, “FUNGICIDAL IMIDAZOLES” (EI DU PONT DE NEMOURS AND COMPANY, priority 2010, published 2013).
Marks after values point to notes of the source that are not given here.

Assays:
Format in all cases: in vivo
[1] = tested on: Botrytis cinerea (the causal agent of tomato Botrytis); assay: Test C: tomato Botrytis, preventive spray on tomato seedlings, visual disease rating; details: for Test C rating (100 = 100% disease control, 0 = no disease control relative to the controls): tomato Botrytis, preventive spray on tomato seedlings; for Test C rating (% disease control, tomato Botrytis): 100 = 100% disease control
Summary of the method: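 Test suspension (acetone/water with 250 ppm Trem 014; 200 ppm equivalent to 800 g/ha) sprayed to run-off on tomato seedlings; B. cinerea spores inoculated next day. After 48 h saturated humidity at 20° C then 3 days at 24° C, disease rated visually as % control relative to untreated controls (0–100).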

[2] = tested on: Puccinia recondite f. sp. tritici (the causal agent of wheat leaf rust); assay: Test A: wheat leaf rust, preventive spray on wheat seedlings, visual disease rating; details: for Test A rating (100 = 100% disease control, 0 = no disease control relative to the controls): wheat leaf rust, preventive spray on wheat seedlings; for Test A rating (% disease control, wheat leaf rust): 100 = 100% disease control
Summary of the method: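 Wheat seedlings were sprayed to run-off with compound suspended in acetone/water containing 250 ppm Trem 014 (200 ppm ≈ 800 g/ha; some at 40 ppm). Puccinia recondite spores were inoculated the next day. Plants were held 24 h saturated at 20° C, then 7 days at 20° C, and disease control was rated visually on a 0–100 scale against controls.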

[3] = tested on: Septoria tritici (the causal agent of wheat leaf blotch); assay: Test B: wheat leaf blotch, preventive spray on wheat seedlings, visual disease rating; details: for Test B rating (100 = 100% disease control, 0 = no disease control relative to the controls): wheat leaf blotch, preventive spray on wheat seedlings; for Test B rating (% disease control, wheat leaf blotch): 100 = 100% disease control
Summary of the method: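 Wheat seedlings sprayed to run-off with compound suspension (acetone/water with 250 ppm Trem 014; 200 ppm ≈ 800 g/ha, some at 40 ppm), inoculated next day with Septoria tritici spores. 48 h saturated humidity at 24 °C, then 19 days at 20 °C; visual rating, 100 = full control.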

[4] = tested on: Blumeria graminis f. sp. tritici (also known as Erysiphe graminis f. sp. tritici, the causal agent of wheat powdery mildew); assay: Test D: wheat powdery mildew, preventive spray on wheat seedlings, visual disease rating; details: for Test D rating (100 = 100% disease control, 0 = no disease control relative to the controls): wheat powdery mildew, preventive spray on wheat seedlings; for Test D rating (% disease control, wheat powdery mildew): 100 = 100% disease control
Summary of the method: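 Compound suspended in acetone/water (50/50) with 250 ppm Trem 014 and sprayed to run-off on wheat seedlings (200 ppm ≈ 800 g/ha), then inoculated next day with spore dust. Disease rated visually after 8 days at 20 °C as % control relative to untreated plants (0-100).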

[5] = no asterisk (standard test suspension concentration, not 40 ppm)
[6] = asterisk: 40 ppm test suspension
[7] = asterisk: 40 ppm test suspension, 0 = no control
[8] = no asterisk: standard test suspension concentration, 0 = no control relative to controls

Row | Structure (SMILES) | Test C rating (100 = 100% disease control, 0 = no disease control relative to the controls) [1, 5] | Test A rating (100 = 100% disease control, 0 = no disease control relative to the controls) [2, 5] | Test B rating (100 = 100% disease control, 0 = no disease control relative to the controls) [3, 5] | Test D rating (100 = 100% disease control, 0 = no disease control relative to the controls) [4, 5] | Test C rating (100 = 100% disease control, 0 = no disease control relative to the controls) [1, 6] | Test A rating (100 = 100% disease control, 0 = no disease control relative to the controls) [2, 6] | Test B rating (100 = 100% disease control, 0 = no disease control relative to the controls) [3, 6] | Test D rating (100 = 100% disease control, 0 = no disease control relative to the controls) [4, 6] | further results
1 | OC(c1ccc(F)cc1F)c1c(Cl)ncn1-c1ccc(F)cc1Cl (stereo not drawn) [Compound 2, 4-chloro-1-(2-chloro-4-fluorophenyl)-α-(2,4-difluorophenyl)-1H-imidazole-5-methanol] | 100% | 100% | 100% | 81% |  |  |  |  | 
2 | Cc1ncc(C(O)c2ccc(F)cc2Cl)n1-c1ccc(F)cc1Cl (stereo not drawn) [compound 171] | 95% | 100% | 100% | 0% |  |  |  |  | 
3 | Cc1nc(Cl)c(C(O)c2ccc(F)cc2Br)n1-c1ccc(F)cc1Cl (racemic) [compound 272] |  |  |  |  | 93* % | 100* % | 100* % | 21* % | 
4 | Cc1nc(Cl)c(C(O)c2ccc(F)cc2F)n1-c1c(F)cccc1Cl (stereo not drawn) [compound 389] |  |  |  |  |  |  |  |  | Test C rating (% disease control, tomato Botrytis) [1, 7]: 100* %; Test A rating (% disease control, wheat leaf rust) [2, 7]: 100* %; Test B rating (% disease control, wheat leaf blotch) [3, 7]: 100* %; Test D rating (% disease control, wheat powdery mildew) [4, 8]: 98%
5 | COc1ccc(C(O)c2c(C)nc(Cl)n2-c2c(F)cccc2F)c(Cl)c1 (racemic) [compound 221] |  |  |  |  | 99* % | 100* % | 100* % | 97* % | 
6 | COc1ccc(C(O)c2c(Cl)ncn2-c2ccc(F)cc2Cl)c(Cl)c1 (stereo not drawn) [compound 356] |  |  |  |  | 0* % | 95* % | 19* % | 0* % | 
7 | Cc1ncc(C(O)c2ccc(F)cc2F)n1-c1c(F)cc(F)cc1Br (stereo not drawn) [compound 410] |  |  |  |  |  |  |  |  | Test C rating (% disease control, tomato Botrytis) [1, 8]: 97%; Test A rating (% disease control, wheat leaf rust) [2, 8]: 100%; Test B rating (% disease control, wheat leaf blotch) [3, 8]: 100%; Test D rating (% disease control, wheat powdery mildew) [4, 8]: 13%
8 | OC(c1c(F)cc(F)cc1F)c1c(Cl)nc(Cl)n1-c1ccc(F)cc1Cl (stereo not drawn) [compound 49] | 100% | 100% | 100% | 100% |  |  |  |  | 
9 | Cc1ncc(C(O)c2c(F)cc(Cl)cc2F)n1-c1ccc(F)cc1F (racemic) [compound 271] |  |  |  |  | 0* % | 0* % | 17* % | 0* % | 
10 | Cc1nc(Cl)n(-c2c(F)cc(Cl)cc2F)c1C(O)c1ccc(F)cc1F (racemic) [compound 273] |  |  |  |  | 99* % | 100* % | 100* % | 0* % | 
11 | COc1ccc(C(O)c2cnc(C)n2-c2ccc(F)cc2F)c(Cl)c1 (racemic) [compound 282] |  |  |  |  | 0* % | 92* % | 63* % | 0* % | 
12 | OC(c1ccc(F)cc1F)c1c(Br)nc(Cl)n1-c1c(F)cc(F)cc1Cl (stereo not drawn) [compound 108] |  |  |  |  | 67* % | 100* % | 100* % | 99* % | 
13 | Cc1cc(F)ccc1C(O)c1c(Cl)nc(C)n1-c1c(Cl)cccc1Cl (stereo not drawn) [compound 366] | 100% | 99% | 100% | 97% |  |  |  |  | 
14 | Cc1nc(Br)c(C(O)c2c(F)cc(F)cc2F)n1-c1ccc(Cl)cc1 (stereo not drawn) [compound 353] | 28% | 9% | 44% | 0% |  |  |  |  | 
15 | Cc1cccc(Br)c1-n1c(C)nc(Br)c1C(O)c1ccc(F)cc1Cl (stereo not drawn) [compound 335] |  |  |  |  | 35* % | 98* % | 86* % | 64* % | 
16 | Cc1cc(F)ccc1C(O)c1c(Br)nc(C)n1-c1c(F)cccc1Br (stereo not drawn) [compound 406] |  |  |  |  |  |  |  |  | Test C rating (% disease control, tomato Botrytis) [1, 8]: 43%; Test A rating (% disease control, wheat leaf rust) [2, 8]: 100%; Test B rating (% disease control, wheat leaf blotch) [3, 8]: 100%; Test D rating (% disease control, wheat powdery mildew) [4, 8]: 56%
17 | Cc1nc(Cl)c(C(O)c2ccc(F)cc2Br)n1-c1c(F)cccc1Br (stereo not drawn) [compound 68] | 100% | 100% | 100% | 96% |  |  |  |  | 
18 | Cc1ncc(C(O)c2ccc(F)cc2Br)n1-c1c(F)cc(F)cc1Br (stereo not drawn) [compound 94] | 99% | 100% | 100% | 56% |  |  |  |  | 
19 | Cc1nc(Cl)n(-c2c(F)cccc2F)c1C(O)c1c(F)cccc1F (racemic) [compound 24] |  |  |  |  | 100* % | 100* % | 100* % | 91* % | 
20 | Cc1nc(Cl)c(C(O)c2c(F)cc(F)cc2F)n1-c1ccc(Cl)cc1 (stereo not drawn) [compound 204] | 45% | 19% | 75% | 0% |  |  |  |  | 
21 | Cc1nc(Cl)c(C(O)c2ccc(F)cc2Br)n1-c1c(F)cccc1Cl (stereo not drawn) [compound 386] |  |  |  |  |  |  |  |  | Test C rating (% disease control, tomato Botrytis) [1, 7]: 100* %; Test A rating (% disease control, wheat leaf rust) [2, 7]: 100* %; Test B rating (% disease control, wheat leaf blotch) [3, 7]: 100* %; Test D rating (% disease control, wheat powdery mildew) [4, 7]: 73* %
22 | Cc1nc(Cl)c(C(O)c2c(F)cc(Cl)cc2F)n1-c1ccc(F)cc1Cl (stereo not drawn) [compound 156] | 16% | 98% | 92% | 0% |  |  |  |  | 
23 | Cc1nc(Cl)n(-c2c(F)cccc2Br)c1C(O)c1ccc(F)cc1Cl (stereo not drawn) [compound 207] |  |  |  |  | 100* % | 100* % | 100* % | 81* % | 
24 | Cc1cc(F)ccc1C(O)c1c(C)nc(Cl)n1-c1c(F)cccc1Cl (stereo not drawn) [compound 208] |  |  |  |  | 99* % | 100* % | 100* % | 81* % | 
